# From US8178132B2, “Magnesium-containing food compositions” (Magceutics, Inc., priority 2007, dated 2012)
# How the values were obtained:
# rats [1] = test system: rats
# Description: Twenty 2-month old, male Sprague Dawley (SD) rats were housed in a temperature-controlled room (22° C. to 25° C.) with a dark period from 08:00 pm to 08:00 am daily. […] Over 7 days before the training and trial period began, each rat was handled and habituated to the maze and to Kellogg's Froot Loop cereal.
# Each rat underwent a test of one trial, followed by an interval of 10-minutes, followed by another trial, and so on, for a total of 6 trials in one day. In each trial, each rat went through a sample run in the maze, followed by an interval of 15 seconds, followed by a choice run in the maze. In the sample run, the subject rat was forced to go to the left or to the right by the presence of a block, according to a pseudorandom sequence (with an equal number of left turns and right turns, and no more than two consecutive turns in the same direction). As a reward, Froot Loop cereal was available in the food well at the end of the run, regardless of the direction that was taken by virtue of the block. In the choice run, the block that had been present in the preceding sample run was removed, and the rat was allowed to choose to go to the left or to the right. As a reward, Froot Loop cereal was available in the food well at the end of the run, only when the rat had made a “correct choice” by choosing the direction opposite that taken in the preceding sample run. […]
# On the first day (designated day 0) of the feeding of the two groups, as just described, each rat underwent a preliminary test of one trial, followed by an interval of 10 minutes, followed by another trial, and so on, for a total of 4 trials in one day. […] In this preliminary test, the choice accuracy level, or ratio of correct choices made, co, to the number of number of trials in the test, no, was determined for each rat. […]
# Three groups of animals (young, aging, and magnesium-treated aging rats) were used. […] Spatial working memory was assessed using a T-maze non-matching-to-place task. […] Spatial working memory was first assessed on an elevated T-maze. […]
# rats [2] = assay: Novel object recognition test in rats; assay type: in vivo, Sprague-Dawley rats
# Description: In this example, the effect of magnesium supplementation on recognition memory was tested. Three groups of rats were used in these experiments: 1) young rats (three months old); aging rats (12-14 months old), and; 3) magnesium-treated aging rats (12-14 months old, diet supplemented with 6 mg/kg MgCl2 from 8 months of age). We used experimentally naive, female, Sprague-Dawley young […], aging (12-14 month old) and […] rats (Charles River) at the beginning of the behavior experiments. They were housed two per cage with continuous access to food and water under a 12:12 light-dark cycle, with light onset at 8:00 a.m. […] All experiments involving animals were approved by the Massachusetts Institute of Technology's and Tsinghua University Committees on Animal Care.
# The three groups of rats were tested for recognition memory using an object recognition test with a single exposure to the object during training. The task is based on the natural tendency of rodents to explore new objects and tests the animals' memory capacity for distinguishing novel versus familiar objects.
# Briefly, the rats were first individually habituated to the personnel and then to open-field arena during 2 weeks. […] The retention intervals were 10 min and 24 hours. Objects were cleaned thoroughly between trials with 20% ethanol solution to ensure the absence of olfactory cues. The particular objects for a given trial were randomly determined, but each object was used for only one trial per rat. Memory of the familiar object is associated with increased exploration of the new object and an exploration index (% correct) is calculated as new object inspection time/30.
# In this example, the effect of magnesium supplementation on memory consolidation was studied. […]
# Briefly, the rats were first individually habituated to the personnel and then to open-field arena during 2 weeks. […] The particular objects for a given trial were randomly determined, but each object was used for only one trial per rat. […]
# rats [3] = settings: 2% in food for 8 days, cited from earlier work
# [4] = test system: mice genetically altered to present symptoms of Alzheimer's disease (AD); assay: Modified Morris water maze test in AD mice; assay type: in vivo; settings: AD mice aged 13 months, compared with aricept
# Description: Another group, the control group, of 10 mice that were genetically altered to present symptoms of AD were fed a Control Diet, a diet of normal solid food and water, for 30 days.
# The pool used was a pool of water in a circular metal tank (150 cm in diameter and 50 cm in depth) having a water height of 30 cm and a water temperature that was maintained at ˜22° C. The pool was placed in a moderately lit area and surrounded by a black curtain. An acrylic platform (15 cm in diameter) was placed 2 cm below the surface of the water in the middle of one quadrant of the pool, equidistant from the center and the edge of the pool. Outside the pool, a cue was placed so as to be visible to a mouse in the maze, allowing a mouse to use it as a landmark for spatial orientation. The cue remained unchanged throughout the test period.
# On the first day of the training and testing period, the water in the pool was transparent, such that the platform was visible. Each mouse was trained to swim towards the platform and to stand on the platform so as not to be submerged in the pool. […] The amount of time the mouse took to find the platform, referred to as “escape latency,” was recorded for each trial.
# On the second day of the training and testing period, a small quantity of milk was added to the water in the pool, such that the pool was opaque and the platform was no longer visible. […]
smiles,measurement,setting,value
"[Cl-].[Cl-].[Mg+2] [MgCl2, magnesium chloride]",asymptotic choice accuracy level,"rats [1]; after 8 days of training, 15 s delay",~94%
same,spatial working memory at increased delay,"rats [1]; aging rats, MgCl2 diet, 2 and 5 min delays",significantly enhanced the performance of the aging rats at 2 and 5 min delays
same,learning in non-matching-to-place task,"rats [1]; aging rats, MgCl2 diet, 15 sec delay",performed significantly better from their first trials
same,"novel object exploration preference, 10 minute retention interval","rats [2]; aging rats 12-14 months, 6 mg/kg MgCl2 from 8 months of age, single training",preferentially explored the novel object to the same extent as young rats
same,"novel versus familiar object discrimination, 24 hours retention","rats [2]; aging rats, 6 mg/kg MgCl2, single training",lose there ability to distinguish novel versus familiar objects
same,"preference for the novel object, 24-hour retention after spaced training","rats [2]; aging rats, two training sessions separated by 10 minutes",retained a high level of preference
[O]=[Mg] [magnesium oxide],side-effect,rats [3],diarrhea and weight loss
same,cognitive function,rats [3]; young (9-month) and aged (25-month) rats,some sign of improvement of cognitive function
CC12CC3CC(C)(C1)CC(N)(C3)C2 [memantine],"reduction of the effects of AD on learning capacity, comparison of anti-AD drugs",[4],better at reducing the effects of AD on learning capacity than aricept
